Measured values published in patent US9198909B1, “Materials and methods for inhibiting mamalian S-nitrosoglutathione reductase” (Indiana University Research and Technology Corporation, priority 2007, dated 2015).
One block for each compound: values may come before it.

Experiments:
σ-ADH = biological target: T1, σ-ADH (Homo sapiens, UniProt P40394); assay: ADH isozyme selectivity study: σ-ADH; format: biochemical; settings: about 5 μM inhibitor, pH 7.5, 2 mM NAD+, 30 mM ethanol
T1 construct: made in house; host or cells: E. coli
Experimental: (§1) Referring now to Table 2, briefly inhibition studies were performed in presence or absence of about 5 μM inhibitor. These studies were carried out at 25° C. in 50 mM potassium phosphate pH 7.5 including 0.1 mM EDTA. The enzymes activities were measured by following the changes in absorbance at 340 nm. The values show the percent reduction in the enzyme activity (from a minimum of two measurements) caused by the inhibitor. […] Studies with β2β2-, σσ-, π-ADH and involving compounds 5-8 were performed in 0.05% DMSO. Studies with GSNOR were performed in presence of 1% DMSO, except when compound 4 was the inhibitor. Studies with compound 4 were performed in 0.36% DMSO. DMSO at 0.36% inhibited β2β2-, σσ-, and π-ADH by 24, 18, and 9%, respectively. Studies with β2β2-ADH involved adding 3.5 μg of the enzyme to the assay mixture including 2 mM NAD^+, 1 mM ethanol and the inhibitor.
(§2) Studies with σσ-ADH involved adding 0.5 μg of enzyme to the assay mixture containing 2 mM NAD^+, 30 mM ethanol and the inhibitor. Studies with π-ADH involved adding 19.5 μg of the enzyme to the assay mixture including 1 mM NAD^+, 35 mM ethanol and the inhibitor. […]
(§3) Inhibition of the β2β2-, π-, and σ-ADH was evaluated by determining the inhibitory effect of GSNOR inhibitors on the rate of oxidation of ethanol by each of these ADH isozymes. […]

GSNOR [1] = biological target: T2, GSNOR (Homo sapiens, UniProt P11766); assay: ADH isozyme selectivity study: GSNOR; format: biochemical; parameters: made in house; host or cells: E. coli; settings: about 5 μM inhibitor, pH 7.5
Experimental: as §1
Target sequence in this assay (P11766 2-374 limits assumed): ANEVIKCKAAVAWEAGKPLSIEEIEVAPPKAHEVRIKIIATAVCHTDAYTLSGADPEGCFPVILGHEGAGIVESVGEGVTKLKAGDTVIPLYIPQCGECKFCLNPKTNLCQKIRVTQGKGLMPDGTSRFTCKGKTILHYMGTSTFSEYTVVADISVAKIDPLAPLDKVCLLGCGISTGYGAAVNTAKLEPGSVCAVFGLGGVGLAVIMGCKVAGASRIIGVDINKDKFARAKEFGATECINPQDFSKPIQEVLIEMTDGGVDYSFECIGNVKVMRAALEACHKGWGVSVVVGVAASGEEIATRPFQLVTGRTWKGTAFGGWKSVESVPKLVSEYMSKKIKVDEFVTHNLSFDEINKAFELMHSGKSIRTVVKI
Studies with σσ-ADH involved adding 0.5 μg of enzyme to the assay mixture containing 2 mM NAD^+, 30 mM ethanol and the inhibitor. Studies with π-ADH involved adding 19.5 μg of the enzyme to the assay mixture including 1 mM NAD^+, 35 mM ethanol and the inhibitor. Studies with GSNOR involved adding 0.1 μg of the enzyme to an assay mixture including 15 μM NADH, 5 μM GSNO and the inhibitor.

GSNOR•NADH complex [2] = biological target: T3, GSNOR•NADH complex (Homo sapiens, UniProt P11766); settings: alcohol substrate, abortive ternary complex; read-out: dissociation constant for the GSNOR•NADH complex; cited from earlier work
T3 construct: made in house; host or cells: E. coli

RAW 264.7 cells = assay: Nitroso species accumulation in RAW 264.7 cells (triiodide chemiluminescence); format: cell-based, rat
Experimental: Referring now to FIG. 3, briefly, RAW 264.7 cells were incubated with 500 μM GSNO alone (γ) or in presence of 33 μM Compound 6 (◯) or 7 (Δ) or 8 (▪). At indicated times or at 4 hr (in case of B), the cells were lysed and the lysate was analyzed for protein and nitroso species concentration by Bradford and chemiluminescence assay, respectively. For details, see Materials and methods. Data represents mean±SE (n=3−12).
RAW 264.7 cells were cultured in DMEM medium supplemented with 10% FBS, 200 U/ml of penicillin and 200 μg/mL of streptomycin. The cells were incubated at 37° C. in an atmosphere containing 5% CO2 and 95% air. For the experiments, 1-2×10^6 cells were plated in six-well plates a day before the experiment. On the day of the assay the medium was replaced with 3 ml of fresh medium and the cells were treated with compounds for a predetermined length of time. Following the incubation period, the cells were washed three times with PBS and scraped off the plate in 250 μl of lysis buffer (50 mM potassium phosphate pH 7.0 containing 50 mM NEM and 1 mM EDTA). Cells were lysed by sonication using a micro tip probe (three pulses of 30% duty cycle; 2 output control on a Fisher Sonicator). Cell debris was pelleted by centrifugation (10 min at 16,000 g) and the cell lysate was analyzed for protein concentration using the Bio-Rad dye-binding protein assay. The concentration of nitroso compounds in the cell lysate was determined using the triiodide based chemiluminescence method using a Sievers 280 nitric oxide analyzer. Briefly, cell lysates were treated with 15% v/v of a sulfanilamide solution (5% w/v in 0.2 M HCl) and kept at room temperature for 5 min to remove nitrite. The triodide mixture was prepared fresh every day as described earlier and kept at 60° C. in the reaction vessel. The concentration of nitroso species was derived from a standard curve generated using GSNO. For determining the amount of the small size nitroso compounds in the cell lysate, a 5 kDa-cutoff Amicon ultra filtration unit was used according to the supplier's instructions. The amount of s-nitrosothiols in the cell lysate was determined by treating initially passing the cell lysate through a microspin column and treating the eluate with 5 mM HgCl2 before determining the nitroso compound concentration using chemiluminescence. For some experiments the cells were pretreated with the compounds for 16 hours prior to the day of experiment.

GSNOR [3] = biological target: T2, GSNOR; assay: GSNOR inhibition at pH 7.5 (GSNO, NADH); format: biochemical; parameters: made in house; host or cells: E. coli; settings: Table 1; pH not stated
Experimental: Referring now to Table 1, inhibition was studied at pH 10. These assays were performed in 0.1 M sodium glycine containing 1 mM octanol, 1 mM NAD^+, 0.1 mM EDTA and 50 μM inhibitor. Inhibition studies at pH 7.5 were performed in 50 mM potassium phosphate pH 7.5 that included 15 μM NADH, 10 μM GSNO, 0.1 mM EDTA and 50 μM inhibitor. The data file to a model consisted with partial inhibition and a hill coefficient of 2.4 in the inhibition curve. The screening for GSNOR inhibitors was performed using a library of 60,000 compounds from ChemDiv Inc in the Chemical Genomics Core facility at Indiana University. Screening was conducted in 384 well plates and involved incubating GSNOR with 12.5 μM compound, 1 mM each of NAD^+ and octanol in 0.1 M sodium glycine pH 10. Enzyme activity was determined by measuring the rate of production of NADH spectrophotometrically at 340 nm. Inhibition of GSNOR was calculated from the ratio of enzyme activity in the presence of compounds to that in no compound controls performed on the same assay plate. Following their identification from the high-throughput screening, the GSNOR inhibitory properties of the initial hits were confirmed at the pH 10 using 12-hydroxydodecanoic acid as the substrate and at pH 7.5 using GSNO as the substrate (see the brief description of Table 1 for details on how the assay was carried out.)
Target sequence in this assay (P11766 2-374 limits assumed): as above

GSNOR [4] = biological target: T2, GSNOR; assay: GSNOR substrate kinetics with octanol; format: biochemical; settings: octanol versus GSNO
Experimental: GSNOR is an alcohol dehydrogenases and like other members of ADH family, is capable of oxidizing and reducing primary alcohols and aldehydes with the help of a molecule of NAD(H). Octanol was chosen as the substrate in the initial screening assay as it is bulky like GSNO, but has 200-fold higher KM value (1 mM) and a kcat value (200 min-1) that is more than 2 order of magnitude lower than that of GSNO. This allows the initial velocity conditions to prevail for a period up to 10 min (data not shown) and it enables conducting a large number of concurrent assays in a384 well plate format. The pH of the assay was adjusted to pH 10 in order to get significant rate of oxidation of octanol in the absence of compounds. The screening for GSNOR inhibitors was performed in the presence of saturating concentration of NAD^+ and an un-saturating concentration of octanol thereby increase the probability of identifying compounds that bind, only or primarily in the GSNO binding site of GSNOR. This was deemed desirable as there are many dehydrogenases inside the cells and compounds binding in the coenzyme binding site are more likely to be nonspecific inhibitors of GSNOR, than compounds that bind primarily to the form of GSNOR that binds GSNO.
Target sequence in this assay (P11766 whole entry): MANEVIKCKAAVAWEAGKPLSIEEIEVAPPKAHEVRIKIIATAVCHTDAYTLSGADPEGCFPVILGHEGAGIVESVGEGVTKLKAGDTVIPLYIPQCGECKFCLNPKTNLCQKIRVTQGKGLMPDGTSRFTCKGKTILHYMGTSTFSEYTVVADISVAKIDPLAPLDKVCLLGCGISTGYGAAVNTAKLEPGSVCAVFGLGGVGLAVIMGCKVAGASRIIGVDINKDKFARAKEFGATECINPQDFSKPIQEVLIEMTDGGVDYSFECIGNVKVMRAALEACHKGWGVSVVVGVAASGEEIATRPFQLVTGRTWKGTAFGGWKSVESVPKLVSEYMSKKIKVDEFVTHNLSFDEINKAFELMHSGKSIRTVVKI

GSNOR•NADH complex [5] = biological target: T3, GSNOR•NADH complex; assay: Fluorescence equilibrium binding to GSNOR•NADH complex; settings: 1.7 μM NADH, 2 μM GSNOR, 50 μM compound 8
Experimental: Referring now to FIG. 2, (A) Changes in the fluorescence of NADH (curve a) upon sequential addition of GSNOR (curve b) and compound 8 (curve c). To a solution of 1.7 μM NADH were added 2 μM GSNOR and 50 μM compound 8 in sequence and the fluorescence of the solution measured each time (λexc=350 nm; λemm=375-550 nm); (B) Changes in the fluorescence of NADH (curve a) upon sequential addition of GSNOR (curve b), 12-HDDA (curve c) and compound 8 (curve d). To a solution of 1.7 μM NADH were added 2 μM GSNOR, 810 μM 12-HDDA and 50 μM compound 8 in sequence and the fluorescence measured each time (λexc=350 nm; λemm=375-550 nm); (C) Binding of compound 8 to GSNOR•NADH complex. The change in fluorescence of a 1.7 μM NADH and 2 μM GSNOR mixture (λexc=350 nm; λemm=455 nm) with increasing concentrations of compound 8 was fitted to a single site binding model (equation 1; see materials and methods) using the Graphpad Prizm 4. All of the fluorescence studies were conducted at room temperature in 50 mM potassium phosphate pH 7.5.
Referring now to Table 3, inhibition experiments were performed at 25° C. in 50 mM potassium phosphate (pH 7.5) including 0.1 mM EDTA. […] The dissociation constant was measured at 25° C. in 50 mM potassium phosphate pH 7.5. […]
Fluorescence studies were conducted in 50 mM potassium phosphate pH 7.5, at room temperature using a Fluoromax-2 fluorescence spectrometer (Instruments S.A., Inc., Edison, N.J.). The equilibrium dissociation constant of GSNOR inhibitors was determined by measuring the changes in the fluorescence of GSNOR bound NADH (λexc=350 nm; λemm=455 nm) upon the addition of inhibitor. […] The decrease in fluorescence at 455 nm with each addition of inhibitor was plotted against the final concentration of inhibitor and the data were fitted to equation 1 using nonlinear regression to obtain the dissociation constant of the inhibitor for GSNOR-NADH complex,
[formula] In equation 1, ΔF is the change in the fluorescence at 455 nm upon the addition of inhibitor. ΔFM is the maximum fluorescence change that was obtained from curve fitting. […]

GSNOR [6] = biological target: T2, GSNOR; assay: Dead-end inhibition studies of GSNOR; format: biochemical; parameters: made in house; host or cells: E. coli; settings: pH 7.5, 25° C., GSNO held at 10 μM
Experimental: Referring now to Table 3, inhibition experiments were performed at 25° C. in 50 mM potassium phosphate (pH 7.5) including 0.1 mM EDTA. A minimum of five concentrations of the varied substrate and three inhibitor concentrations were used for each experiment. NADH and GSNO concentrations were held at 15 or 10 μM, respectively when present as a constant substrate in the assay. The Kis and Kii values are respectively the slope and intercept inhibition constants and are listed along with their associated standard errors. All data were fit to a competitive (C), noncompetitive (NC), or uncompetitive (UC) inhibition models. The type of inhibition shown in the table represents the best fit of the data to the given model as judged from F statistics analysis. […] The dissociation constant was measured at 25° C. in 50 mM potassium phosphate pH 7.5. Each KD value is an average of three independent experiments and is shown with the associated standard error.
Inhibition experiments with the GSNOR inhibitors were conducted at 25° C. in 3 ml of 50 mM potassium phosphate (pH 7.5) containing 0.1 mM EDTA. […] A minimum of three inhibitor concentrations were used in these assays and the rate of NADH and GSNO consumption was determined spectrophotometrically by following change in absorbance at 340 nm. […]
Target sequence in this assay (P11766 2-374 limits assumed): as the sequence (P11766 2-374 limits assumed) above

π-ADH = biological target: T4, π-ADH (Homo sapiens, UniProt P08319); assay: ADH isozyme selectivity study: π-ADH; format: biochemical; settings: about 5 μM inhibitor, pH 7.5, 1 mM NAD+, 35 mM ethanol
T4 construct: made in house; host or cells: E. coli
Experimental: as §1, §2, §3

GSNOR [7] = biological target: T2, GSNOR; settings: read-out: KD of NADH for GSNOR; cited from earlier work
Target sequence in this assay (P11766 whole entry): as the sequence (P11766 whole entry) above

T3 sequence (P11766 2-374 limits assumed, one chain of several): as the sequence (P11766 2-374 limits assumed) above
T4 sequence (P08319 whole entry): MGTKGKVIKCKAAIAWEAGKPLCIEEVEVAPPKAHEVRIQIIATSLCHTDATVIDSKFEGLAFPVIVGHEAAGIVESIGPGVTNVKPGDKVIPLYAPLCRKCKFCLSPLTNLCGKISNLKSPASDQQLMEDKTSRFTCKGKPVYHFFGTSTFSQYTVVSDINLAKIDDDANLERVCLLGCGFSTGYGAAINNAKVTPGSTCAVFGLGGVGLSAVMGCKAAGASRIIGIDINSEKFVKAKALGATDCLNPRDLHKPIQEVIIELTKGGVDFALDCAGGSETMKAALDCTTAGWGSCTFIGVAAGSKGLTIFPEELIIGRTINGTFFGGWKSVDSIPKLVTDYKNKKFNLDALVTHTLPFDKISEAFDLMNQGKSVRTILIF
T1 sequence (P40394 whole entry): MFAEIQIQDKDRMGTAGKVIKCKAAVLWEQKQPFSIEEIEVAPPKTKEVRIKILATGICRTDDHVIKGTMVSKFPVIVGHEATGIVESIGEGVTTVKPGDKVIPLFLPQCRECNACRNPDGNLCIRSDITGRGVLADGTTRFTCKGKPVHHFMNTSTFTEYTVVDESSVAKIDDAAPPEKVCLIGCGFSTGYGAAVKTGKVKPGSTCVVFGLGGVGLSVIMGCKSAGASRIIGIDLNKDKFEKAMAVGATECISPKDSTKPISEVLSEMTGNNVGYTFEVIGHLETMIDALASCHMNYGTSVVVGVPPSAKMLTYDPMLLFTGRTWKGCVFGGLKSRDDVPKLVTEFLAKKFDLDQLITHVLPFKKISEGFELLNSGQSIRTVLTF

SMILES: CC(=O)Oc1ccc(C2Nc3ccc(C(=O)O)cc3C3C=CCC32)c(OC(C)=O)c1 (stereo not shown) [Compound 5]
inhibition of σ-ADH (σ-ADH): significant inhibition
inhibition of GSNOR (in words) (GSNOR [1]): modestly good inhibitor

SMILES: O=C(O)CCCCCCCCCCCO [Compound 12-HDDA, 12-hydroxydodecanoic acid]
Kd (GSNOR•NADH complex [2]): 170 µM

SMILES: N[C@@H](CCC(=O)N[C@@H](CSN=O)C(=O)NCC(=O)O)C(=O)O [GSNO, s-nitrosoglutathione]
buildup of nitrosylated compounds in cells (RAW 264.7 cells; 500 μM GSNO alone): significant buildup
time to equilibrium level of nitrosylated compounds (RAW 264.7 cells; 500 μM GSNO alone): ≤ 1 h

SMILES: Cc1ccc(C)c(-c2csc(-c3cc4ccc(O)cc4oc3=O)n2)c1 [Compound 4]
inhibition of π-ADH (π-ADH): inhibited π-ADH more than GSNOR

SMILES: NC(=O)C1=CN([C@@H]2O[C@H](COP(=O)(O)OP(=O)(O)OC[C@H]3O[C@@H](n4cnc5c(N)ncnc54)[C@H](O)[C@@H]3O)[C@@H](O)[C@H]2O)C=CC1 [NADH]
Kd (GSNOR [7]): 0.05 µM

Second part, led by results:

inhibition of GSNOR compared with compound 5 (ester) (GSNOR [3]): three fold higher inhibition
SMILES: O=C(O)c1ccc2c(c1)C1C=CCC1C(c1ccc(O)cc1O)N2 (stereo not shown) [hydrolyzed form of compound 5]

KM value, fold higher than GSNO (GSNOR [4]): 200 fold
SMILES: CCCCCCCCO [octanol]

type of inhibition against varied NADH (GSNOR [6]): uncompetitive
SMILES: CC(=O)c1ccc(-n2c(CCC(=O)O)ccc2-c2ccccc2)cc1 [Compound 6]
effect on fluorescence of GSNOR bound NADH (GSNOR•NADH complex [5]): quenched the NADH fluorescence
nitrosylation, fold higher than Compound 7 (RAW 264.7 cells; 33 μM initial concentration, 500 μM GSNO, 4 hr): 3 fold
decrease in nitrosylated species relative to amounts at 4 hours (RAW 264.7 cells; exposure up to 24 hours, data not shown): 80%
